Experimental data as given in patent US6204294A, “IL-8 receptor antagonists” (SmithKline Beecham Corporation, priority 1999, dated 2001).

Tested on: recombinant human IL-8 type β receptor (IL-8Rβ, Type II, permissive receptor)
Test: Receptor binding assay, permissive model (IL-8b), [125I]IL-8 on CHO membranes
Conditions: recombinant IL-8Rβ CHO membranes; compound without an ionizable proton in the 2-position
Source text: [^125 I]IL-8 (human recombinant) was obtained from Amersham Corp., Arlington Heights, Ill., with specific activity 2000 Ci/mmol. Gro-α was obtained from NEN- New England Nuclear. All other chemicals were of analytical grade. High levels of recombinant human IL-8 type α and β receptors were individually expressed in Chinese hamster ovary cells as described previously (Holmes, et al., Science, 1991, 253, 1278). The Chinese hamster ovary membranes were homogenized according to a previously described protocol (Haour, et al., J Biol Chem., 249 pp 2195-2205 (1974)). Except that the homogenization buffer was changed to 10mM Tris-HCL, 1mM MgS04, 0.5mM EDTA (ethylene-diaminetetra-acetic acid), 1mMPMSF (α-toluenesulphonyl fluoride), 0.5 mg/L Leupeptin, pH 7.5. Membrane protein concentration was determined using Pierce Co. micro-assay kit using bovine serum albumin as a standard. All assays were performed in a 96-well micro plate format. Each reaction mixture contained ^125 I IL-8 (0.25 nM) or ^125 I Gro-α and 0.5 μg/mL of IL-8Rα or 1.0 μg/mL of IL-8Rβ membranes in 20 mM Bis-Trispropane and 0.4 mM Tris HCl buffers, pH 8.0, containing 1.2 mM MgSO4, 0.1 mM EDTA, 25 mM NaCl and 0.03% CHAPS. […] The filter was then dried and counted on the Betaplate liquid scintillation counter. […]

C=CCOc1cc(C#N)ccc1NC(=NC#N)Nc1ccccc1Br [N-(2-Allyloxy-4-cyano-phenyl)-N'-(2-bromophenyl)-N"-cyanoguanidine]
activity in the permissive model (IL-8b) IL-8 receptor inhibition assay, result in words: inactive
